In PubChem BioAssay AID1195 (EPA DSSTox, 2008):

Tested on: human maximum recommended daily dose, FDA database
Test: DSSTox (FDAMDD) FDA Maximum (Recommended) Daily Dose Database
Details: active compounds read low
Outline: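 MRDD values come from clinical trials with daily oral dosing, usually for 3–12 months, for the average adult, in mg/day converted to mg/kg-bw/day assuming 60 kg. Antineoplastic mg/m2 doses are divided by 37. Activity score maps log10(1/MRDD mmol) onto 1–100.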

[1] = TherapeuticCategory: sedative, hypnotic
[2] = TherapeuticCategory: glucocorticoid
[3] = TherapeuticCategory: diagnostic aid
[4] = TherapeuticCategory: antibacterial
[5] = TherapeuticCategory: anticholinergic
[6] = TherapeuticCategory: antitussive

Molecule C[C@]12CCC(=O)C=C1CC[C@@H]1[C@@H]2[C@@H](O)C[C@]2(C=O)[C@@H](C(=O)CO)CC[C@@H]12 has a maximum recommended daily dose (mmol/kg-bw/day) (TherapeuticCategory: mineralcorticoid) of 2.31e-05.
C[C@@H](Cc1ccccc1)N(C)Cc1ccccc1 gave a maximum recommended daily dose (mmol/kg-bw/day) (TherapeuticCategory: anorexic) of 0.0104.
With CCC1(C2=CCCCC2)C(=O)NC(=O)NC1=O the maximum recommended daily dose (mmol/kg-bw/day) [1] was 0.0282.
CCCCC(=O)O[C@]1(C(=O)COC(C)=O)CC[C@H]2[C@@H]3CCC4=CC(=O)C=C[C@]4(C)[C@H]3[C@@H](O)C[C@@]21C showed a maximum recommended daily dose (mmol/kg-bw/day) [2] of 0.00684.
CC(C)c1cccc(C(C)C)c1O gave a maximum recommended daily dose (mmol/kg-bw/day) (TherapeuticCategory: anesthetic) of 0.014.
Work on CC(=O)Nc1c(I)c(C(=O)O)c(I)c(N(C)C(C)=O)c1I yielded a maximum recommended daily dose (mmol/kg-bw/day) [3] of 0.159.
Work on CN(C)CCn1nnnc1SCC1=C(C(=O)O)N2C(=O)[C@@H](NC(=O)Cc3csc(N)n3)[C@H]2SC1 yielded a maximum recommended daily dose (mmol/kg-bw/day) [4] of 0.19.
Work on O=C1OC(c2ccc(O)cc2)(c2ccc(O)cc2)c2ccccc21 yielded a maximum recommended daily dose (mmol/kg-bw/day) (TherapeuticCategory: cathartic) of 0.00682.
Molecule CCN(CC)C(=O)[C@@H]1C=C2c3cccc4[nH]cc(c34)C[C@H]2N(C)C1 has a maximum recommended daily dose (mmol/kg-bw/day) (TherapeuticCategory: antipsychotic, seratonin receptor antagonist) of 3.86e-05.
CC(C)n1c(/C=C/[C@@H](O)C[C@@H](O)CC(=O)O)c(-c2ccc(F)cc2)c2ccccc21 was tested, and the maximum recommended daily dose (mmol/kg-bw/day) (TherapeuticCategory: antihyperlipoproteinemic) was 0.00162.
CC1CCCC(C)N1NC(=O)c1ccc(Cl)c(S(N)(=O)=O)c1 (centres undefined) was tested, and the maximum recommended daily dose (mmol/kg-bw/day) (TherapeuticCategory: antihypertensive, diuretic) was 0.00289.
Work on NCCCC[C@H](N)C(=O)O yielded a maximum recommended daily dose (mmol/kg-bw/day) (TherapeuticCategory: nutrient) of 0.684.
CO[C@H]1C[C@H](O[C@H]2[C@H](C)[C@@H](O[C@@H]3O[C@H](C)C[C@H](N(C)C)[C@H]3O)[C@@H](C)C[C@]3(CO3)C(=O)[C@H](C)[C@@H](O)[C@@H](C)[C@@H](C)OC(=O)[C@@H]2C)O[C@@H](C)[C@@H]1O showed a maximum recommended daily dose (mmol/kg-bw/day) [4] of 0.0484.
Molecule CC(C)(C)NCC(O)c1cc(O)cc(O)c1 (centres undefined) has a maximum recommended daily dose (mmol/kg-bw/day) (TherapeuticCategory: bronchodilator, tocolytic) of 0.00111.
For CCCC(=O)O[C@]1(C(=O)COC(=O)CC)[C@@H](C)C[C@H]2[C@@H]3CCC4=CC(=O)C=C[C@]4(C)[C@@]3(F)[C@@H](O)C[C@@]21C, the maximum recommended daily dose (mmol/kg-bw/day) [2] was 0.000289.
Cc1cc2c(C(C)C)c(O)c(O)c(C=O)c2c(O)c1-c1c(C)cc2c(C(C)C)c(O)c(O)c(C=O)c2c1O gave a maximum recommended daily dose (mmol/kg-bw/day) (TherapeuticCategory: none) of 0.000642.
O=C(O)CCCc1ccc(N(CCCl)CCCl)cc1 was tested, and the maximum recommended daily dose (mmol/kg-bw/day) (TherapeuticCategory: antineoplastic) was 0.000657.
Molecule CCCCC(C(=O)O)C(=O)N(Nc1ccccc1)c1ccccc1 (centres undefined) has a maximum recommended daily dose (mmol/kg-bw/day) (TherapeuticCategory: analgesic, antipyretic, anti inflammatory) of 0.0337.
Work on C[C@](O)(CS(=O)(=O)c1ccc(F)cc1)C(=O)Nc1ccc(C#N)c(C(F)(F)F)c1 yielded a maximum recommended daily dose (mmol/kg-bw/day) (TherapeuticCategory: antiandrogen, antineoplastic) of 0.00194.
Work on CN(C)CCOC(c1ccccc1)c1ccccc1 yielded a maximum recommended daily dose (mmol/kg-bw/day) (TherapeuticCategory: antihistaminic) of 0.00326.
In the case of Nc1ncnc2c1ncn2[C@@H]1O[C@H](CO)[C@@H](O)[C@H]1O, the maximum recommended daily dose (mmol/kg-bw/day) (TherapeuticCategory: antiarrhythmic) is reported as 0.00748.
C[C@]12CC[C@@H]3c4ccc(OC(=O)Cc5ccc(N(CCCl)CCCl)cc5)cc4CC[C@H]3[C@@H]1CC[C@@H]2OC(=O)Cc1ccc(N(CCCl)CCCl)cc1 showed a maximum recommended daily dose (mmol/kg-bw/day) (TherapeuticCategory: estrogen) of 0.0211.
In the case of CC(=O)N(CC(C)C(=O)O)c1c(I)cc(I)c(N)c1I (centres undefined), the maximum recommended daily dose (mmol/kg-bw/day) [3] is reported as 0.122.
With CCN(CC)CC#CCOC(=O)C(O)(c1ccccc1)C1CCCCC1 (centres undefined) the maximum recommended daily dose (mmol/kg-bw/day) [5] was 0.000932.
Work on CNC(=O)c1c(I)c(C(=O)NCC(=O)Nc2c(I)c(C(=O)O)c(I)c(C(=O)NCCO)c2I)c(I)c(N(C)C(C)=O)c1I yielded a maximum recommended daily dose (mmol/kg-bw/day) [3] of 0.0788.
CO[C@H]1/C=C/O[C@@]2(C)Oc3c(C)c(O)c4c(O)c(c(/C=N/N5CCN(C)CC5)c(O)c4c3C2=O)NC(=O)/C(C)=C\C=C\[C@H](C)[C@H](O)[C@@H](C)[C@@H](O)[C@@H](C)[C@H](OC(C)=O)[C@@H]1C gave a maximum recommended daily dose (mmol/kg-bw/day) [4] of 0.0243.
CC1(C)S[C@@H]2[C@H](N3C(=O)C(c4ccccc4)NC3(C)C)C(=O)N2[C@H]1C(=O)O (some centres undefined) gave a maximum recommended daily dose (mmol/kg-bw/day) [4] of 0.0855.
With C[C@]12CCC(=O)C=C1CC[C@@H]1[C@@H]2C(=O)C[C@@]2(C)[C@H]1CC[C@]2(O)C(=O)CO the maximum recommended daily dose (mmol/kg-bw/day) [2] was 0.0139.
For CCCCC[C@H](O)/C=C/[C@H]1[C@H](O)CC(=O)[C@@H]1C/C=C\CCCC(=O)O, the maximum recommended daily dose (mmol/kg-bw/day) (TherapeuticCategory: oxytocic, abortifacient) was 7.09e-05.
For O=C1C(CCS(=O)c2ccccc2)C(=O)N(c2ccccc2)N1c1ccccc1 (centres undefined), the maximum recommended daily dose (mmol/kg-bw/day) (TherapeuticCategory: uricosuric) was 0.0329.
Work on CCOC(=O)[C@H](CCc1ccccc1)N[C@@H](C)C(=O)N1Cc2cc(OC)c(OC)cc2C[C@H]1C(=O)O yielded a maximum recommended daily dose (mmol/kg-bw/day) (TherapeuticCategory: antihypertensive, ACE inhibitor) of 0.00167.
Work on CCO[C@@H]1O[C@H](C(COCc2ccccc2)OCc2ccccc2)[C@H](OCc2ccccc2)[C@H]1O (some centres undefined) yielded a maximum recommended daily dose (mmol/kg-bw/day) (TherapeuticCategory: sclerosing agent) of 0.0278.
Cn1nnnc1SCC1=C(C(=O)O)N2C(=O)[C@@H](NC(=O)[C@H](OC=O)c3ccccc3)[C@H]2SC1 gave a maximum recommended daily dose (mmol/kg-bw/day) [4] of 0.195.
For CC(C)(N)Cc1ccc(Cl)cc1, the maximum recommended daily dose (mmol/kg-bw/day) (TherapeuticCategory: anorexic) was 0.00588.
Molecule C[C@@H]1O[C@@H](O[C@@H]2C=C3CC[C@@H]4[C@H](CC[C@]5(C)[C@@H](c6ccc(=O)oc6)CC[C@]45O)[C@@]3(C)CC2)[C@H](O)[C@H](O)[C@H]1O has a maximum recommended daily dose (mmol/kg-bw/day) (TherapeuticCategory: cardiotonic) of 7.86e-05.
In the case of COc1ccc2c(c1OC)C(=O)O[C@@H]2[C@H]1c2c(cc3c(c2OC)OCO3)CCN1C, the maximum recommended daily dose (mmol/kg-bw/day) [6] is reported as 0.00605.
For NCCCNCCSP(=O)(O)O, the maximum recommended daily dose (mmol/kg-bw/day) (TherapeuticCategory: mucolytic) was 0.115.
Work on CNCCCN1c2ccccc2CCc2ccccc21 yielded a maximum recommended daily dose (mmol/kg-bw/day) (TherapeuticCategory: antidepressant) of 0.0188.
CCN(CC)CCOC(=O)C1(c2ccccc2)CCCC1 showed a maximum recommended daily dose (mmol/kg-bw/day) [6] of 0.0173.
Molecule CO[C@@H]1[C@@H](O[C@@H]2O[C@H](C)[C@@H](O[C@H]3C[C@@](C)(O)[C@@H](O)[C@H](C)O3)[C@H](N(C)C)[C@H]2O)[C@@H](CC=O)C[C@@H](C)[C@@H](O[C@@H]2CC[C@H](N(C)C)[C@@H](C)O2)/C=C/C=C/C[C@@H](C)OC(=O)C[C@H]1O has a maximum recommended daily dose (mmol/kg-bw/day) [4] of 0.0791.
CCn1cc(C(=O)O)c(=O)c2ccc(C)nc21 showed a maximum recommended daily dose (mmol/kg-bw/day) [4] of 0.287.
Work on CN1C(=O)C(O)N=C(c2ccccc2)c2cc(Cl)ccc21 (centres undefined) yielded a maximum recommended daily dose (mmol/kg-bw/day) [1] of 0.000831.
CN(C)C(=O)Oc1ccc[n+](C)c1 was tested, and the maximum recommended daily dose (mmol/kg-bw/day) (TherapeuticCategory: cholinergic) was 0.0766.
Molecule O=C(O)c1c(Cl)c(Cl)c(Cl)c(Cl)c1-c1c2cc(I)c(=O)c(I)c-2oc2c(I)c(O)c(I)cc12 has a maximum recommended daily dose (mmol/kg-bw/day) [3] of 0.00197.
Molecule OC(CCN1CCCC1)(c1ccccc1)C1CCCCC1 (centres undefined) has a maximum recommended daily dose (mmol/kg-bw/day) [5] of 0.00116.
With C[N+](C)(C)CCCCCCCCCC[N+](C)(C)C the maximum recommended daily dose (mmol/kg-bw/day) (TherapeuticCategory: skeletal muscle relaxant) was 9.97e-05.
Molecule CCCC(=O)Nc1c(I)cc(I)c(CC(CC)C(=O)O)c1I (centres undefined) has a maximum recommended daily dose (mmol/kg-bw/day) [3] of 0.0754.
In the case of CCCCCCC(C)(C)c1cc(O)c2c(c1)OC(C)(C)[C@@H]1CCC(=O)C[C@@H]21, the maximum recommended daily dose (mmol/kg-bw/day) (TherapeuticCategory: antiemetic) is reported as 0.000268.
In the case of C[C@](N)(Cc1ccc(O)cc1)C(=O)O, the maximum recommended daily dose (mmol/kg-bw/day) (TherapeuticCategory: tyrosine hydroxylase inhibitor) is reported as 0.342.
NCC(=O)O showed a maximum recommended daily dose (mmol/kg-bw/day) (TherapeuticCategory: none) of 1.33.
CC(=O)Oc1ccc(C(=C2CCCCC2)c2ccc(OC(C)=O)cc2)cc1 showed a maximum recommended daily dose (mmol/kg-bw/day) (TherapeuticCategory: gonad stimulating) of 0.0183.
Work on CN(CC(=O)N1CCOCC1)Cc1c(Cl)cccc1NC(=O)c1ccccc1 yielded a maximum recommended daily dose (mmol/kg-bw/day) (TherapeuticCategory: antitussive, respiratory stimulant) of 0.0199.
Molecule CCN(CCO)CCn1c(Cc2ccccc2)nc2c1c(=O)n(C)c(=O)n2C has a maximum recommended daily dose (mmol/kg-bw/day) (TherapeuticCategory: bronchodilator) of 0.0778.
For O=C(OC1CC2CCC(C1)[N+]21CCCC1)C(O)(c1ccccc1)c1ccccc1 (centres undefined), the maximum recommended daily dose (mmol/kg-bw/day) (TherapeuticCategory: antispasmodic) was 0.000467.
With NS(=O)(=O)c1cc2c(cc1Cl)NC(C1CC3C=CC1C3)NS2(=O)=O (centres undefined) the maximum recommended daily dose (mmol/kg-bw/day) (TherapeuticCategory: diuretic, antihypertensive) was 0.000256.
NC(=S)N=Nc1ccc(NN=C(N)N)cc1 gave a maximum recommended daily dose (mmol/kg-bw/day) [4] of 0.000704.
Molecule CCCN(CCC)C(=O)C(CCC(=O)O)NC(=O)c1ccccc1 (centres undefined) has a maximum recommended daily dose (mmol/kg-bw/day) [5] of 0.0798.
For O=C1CCC(N2C(=O)c3ccccc3C2=O)C(=O)N1 (centres undefined), the maximum recommended daily dose (mmol/kg-bw/day) [1] was 0.0258.
CCOC(=O)[C@]1(c2ccccc2)CCC=C[C@H]1N(C)C gave a maximum recommended daily dose (mmol/kg-bw/day) (TherapeuticCategory: narcotic analgesic) of 0.0122.
